Test results from patent US20260053773A1, “PHARMACEUTICAL COMPOSITION AND USE THEREOF” (AUHUI TONGOO PHARMACEUTICAL TECHNOLOGY CO., LTD., priority 2022, published 2026).
“And” between values parts separate entries of the source, which are not always exact repeats. Equal values may be shown once. Read-outs that look alike come from different tables or passages of the source.

Key:
[1] = Inhibition of COM crystal growth in three growth directions, inhibitors alone and in combination pairs; conditions: for concentration of the single inhibitor achieving 10% inhibition of crystal growth / concentration of the single inhibitor achieving 30% inhibition of crystal growth / concentration of the single inhibitor achieving 70% inhibition of crystal growth / IC50: inhibitor alone; for IC50: read-out: concentration of the single inhibitor achieving 50% inhibition of crystal growth
Method: Different concentrations of citric acid (CA) and ellagic acid (EA) were added to 25 ml of deionized water, the supersaturation of the solution was controlled at S=2.4, and the growth process of the crystal was monitored.
The hollow symbols in the figure represent the concentration required for a single inhibitor to achieve a certain effect, and the same solid symbols represent the concentration required for a combination of the inhibitors to achieve the same effect.
Different concentrations of citric acid (CA) and gallic acid (GaA) were added to 25 ml of deionized water, and the growth process of the crystal was monitored.
Different concentrations of citric acid (CA) and pyrogallol (PGA) were added to 25 ml of deionized water, and the growth process of the crystal was monitored.
Different concentrations of citric acid (CA) and protocatechuic acid (PrA) were added to 25 ml of deionized water, and the growth process of the crystal was monitored.
Comparative Example 1 differed from Example 1 merely in that ellagic acid was replaced with albumin, and the other preparation methods were the same as those in Example 1.
Comparative Example 2 differed from Example 1 merely in that ellagic acid was replaced with o-hydroxybenzoic acid, and the other preparation methods were the same as those in Example 1.
Different concentrations of hydroxycitric acid (HCA) and ellagic acid (EA) were added to 25 ml of deionized water, supersaturation of the solution was controlled at S=2.4, and the growth process of the crystal was monitored.
Different concentrations of hydroxycitric acid (HCA) and gallic acid (GaA) were added to 25 ml of deionized water, and the growth process of the crystal was monitored.
Different concentrations of potassium citrate (KCA) and ellagic acid (EA) were added to 25 ml of deionized water, the supersaturation of the solution was controlled at S=2.4, and the growth process of the crystal was monitored.
Different concentrations of potassium citrate (KCA) and gallic acid (GaA) were added to 25 ml of deionized water, and the growth process of the crystal was monitored.

[2] = system: human proximal tubule cells (HK-2); assay: Cell death/survival of HK-2 cells exposed to COM crystals; assay type: cell-based; conditions: for synergistic enhancement order in improving cell activity: polyphenol (20 μM GaA, 20 μM EA, 40 μM PGA, 200 μM PrA) combined with citric acid 200 μM
Method: Studies have shown that reducing calcium oxalate crystallization, crystal-cell interactions, and cellular damage can prevent stone formation to some extent. On this basis, the present example further verified the combined effect of the pharmaceutical composition of citric acid (200 μM) and polyphenol molecules (20 μM GaA, 20 μM EA, 40 μM PGA, 200 µM PrA) in reducing cellular damage and crystal adhesion.
In order to explore the combined effects of the pharmaceutical composition on reducing crystal toxicity to cells, an in vitro model of direct exposure to COM crystals was selected in the present example to detect short-term cellular damage. In a culture medium environment with or without inhibitors, mature human proximal tubule cells (HK-2) were exposed to COM crystal suspension medium for the indicated times. […] However, in the presence of CA, the amount of cell death was reduced by 50% (FIG. 6).

[3] = system: human proximal tubule cells (HK-2); assay: Lactate dehydrogenase (LDH) release from HK-2 cells exposed to COM crystals; assay type: cell-based; conditions: 200 μM CA, 20 μM GaA
Text: (§1) Studies have shown that reducing calcium oxalate crystallization, crystal-cell interactions, and cellular damage can prevent stone formation to some extent.
Lactate dehydrogenase (LDH) is a cytoplasmic enzyme released into the extracellular space when the cell membrane ruptures, so the amount of LDH released can be used as a sign of cell membrane integrity.

HK-2 cells = assay: Adhesion of COM crystals to HK-2 cells in vitro; assay type: cell-based; conditions: Homo sapiens, 200 μM CA alone, compared with the blank group without inhibitor, read-out: inhibitory effect on COM crystal adhesion
Text: as §1

[4] = related studies; cited from earlier work

| SMILES | concentration of the single inhibitor achieving 10% inhibition of crystal growth ([1]; [001] direction) | concentration of the single inhibitor achieving 30% inhibition of crystal growth ([1]; [001] direction) | concentration of the single inhibitor achieving 70% inhibition of crystal growth ([1]; [001] direction) | IC50 ([1]; [001] direction) | concentration of the single inhibitor achieving 10% inhibition of crystal growth ([1]; [021] direction) | concentration of the single inhibitor achieving 30% inhibition of crystal growth ([1]; [021] direction) | concentration of the single inhibitor achieving 70% inhibition of crystal growth ([1]; [021] direction) | IC50 ([1]; [021] direction) | concentration of the single inhibitor achieving 10% inhibition of crystal growth ([1]; [121] direction) | concentration of the single inhibitor achieving 30% inhibition of crystal growth ([1]; [121] direction) | concentration of the single inhibitor achieving 70% inhibition of crystal growth ([1]; [121] direction) | IC50 ([1]; [121] direction) | synergistic enhancement order in improving cell activity [2] | effect compared with citric acid ([1]; inhibition of COM crystal growth) | reduction of the amount of cell death ([2]; HK-2 cells exposed to COM crystals 24 hours, CA 200 μM) [%] | LDH release compared with the control group [3] [%] | inhibition at 200 µM (HK-2 cells) [%] | inhibitory effect on calcium oxalate crystallization [4] [%] |
| --- | --- | --- | --- | --- | --- | --- | --- | --- | --- | --- | --- | --- | --- | --- | --- | --- | --- | --- |
| O=C(O)CC(O)(C(=O)O)C(O)C(=O)O (stereo not drawn) [HCA, hydroxycitric acid] | 0.0088 mM | 0.0281 mM | 0.1003 mM | 56.1 µM | 0.0096 mM | 0.0320 mM | 0.1104 mM | 61 µM | 0.0110 mM | 0.0367 mM | 0.1240 mM | 72 µM | – | – | – | – | – | – |
| O=c1oc2c(O)c(O)cc3c(=O)oc4c(O)c(O)cc1c4c23 [EA, ellagic acid] | 8.4e-06 mM and 1.04e-05 mM and 1.05e-05 mM | 3.86e-05 mM and 3.09e-05 mM and 3.85e-05 mM | 0.0001322 mM and 0.0001041 mM and 0.0001312 mM | 0.0761 µM and 0.0609 µM and 0.0763 µM | 1.17e-05 mM and 9.4e-06 mM and 1.16e-05 mM | 3.98e-05 mM and 3.2e-05 mM and 3.99e-05 mM | 0.0001369 mM and 0.0001095 mM and 0.0001358 mM | 0.0772 µM and 0.056 µM and 0.0771 µM | 1.64e-05 mM and 1.31e-05 mM and 1.65e-05 mM | 5.62e-05 mM and 4.49e-05 mM and 5.61e-05 mM | 0.0001884 mM and 0.00015 mM and 0.0001879 mM | 0.11 µM and 0.0888 µM | GaA>PcA>PGA>EA | – | – | – | – | – |
| O=C(O)c1ccc(O)c(O)c1 [PrA, protocatechuic acid] | 0.0255 mM | 0.0982 mM | – | 264 µM | 0.0187 mM | 0.0702 mM | – | 186 µM | 0.0307 mM | 0.1174 mM | – | 316 µM | GaA>PcA>PGA>EA | – | – | – | – | – |
| O=C([O-])CC(O)(CC(=O)[O-])C(=O)[O-].[K+].[K+].[K+] [KCA, potassium citrate] | 0.0106 mM | 0.0369 mM | 0.1253 mM | 70.9 µM | 0.0123 mM | 0.0401 mM | 0.1369 mM | 79.4 µM | 0.0135 mM | 0.0451 mM | 0.1547 mM | 88.1 µM | – | almost the same | – | – | – | – |
| O=C(O)CC(O)(CC(=O)O)C(=O)O [CA, citric acid] | 0.0108 mM | 0.0369 mM | 0.1254 mM | 71 µM | 0.0121 mM | 0.0409 mM | 0.1380 mM | 79.5 µM | 0.0135 mM | 0.0458 mM | 0.1550 mM | 89 µM | – | – | 50 | 195.17 | 30 | 60 |
| Oc1cccc(O)c1O [PGA, pyrogallol] | 0.0021 mM | 0.0073 mM | 0.0245 mM | 14.2 µM | 0.0018 mM | 0.0062 mM | 0.0210 mM | 12.1 µM | 0.0027 mM | 0.0091 mM | 0.0309 mM | 17.7 µM | GaA>PcA>PGA>EA | – | – | – | – | – |
| O=C(O)c1cc(O)c(O)c(O)c1 [GaA, gallic acid] | 0.0003716 mM and 0.0004677 mM and 0.0004678 mM | 0.0015906 mM and 0.0012801 mM and 0.00159 mM | 0.0053799 mM and 0.0043049 mM and 0.0053797 mM | 3.1 µM and 2.4 µM | 0.0003743 mM and 0.0002994 mM and 0.0003744 mM | 0.0012912 mM and 0.0010221 mM and 0.001291 mM | 0.0043601 mM and 0.003488 mM and 0.00436 mM | 2.51 µM and 1.8 µM | 0.0004959 mM and 0.0003967 mM | 0.0016841 mM and 0.0013473 mM and 0.0016842 mM | 0.0056887 mM and 0.004551 mM and 0.0056881 mM | 3.27 µM and 2.62 µM | GaA>PcA>PGA>EA | – | – | – | – | – |
